Laboratory results published in patent publication US20230288402A1, “MOLECULES TARGETING RIBOSOMAL PROTEIN RPL35/UL29 FOR USE IN THE TREATMENT OF DISEASES, IN PARTICULAR EPIDERMOLYSIS BULLOSA (EB)” (KBHB CONSULT GMBH, priority 2020, published 2023).

Columns and labels:
[1] = tested on: renilla luciferase reporter; assay: In-vivo dual luciferase reporter read-out in yeast cells, renilla luciferase reporter; type: cell-based; conditions: combined read-outs of 2, 4 and 10 μM
Description: Luciferase read-out data are represented normalized to the individual luciferase reporter (Ren, Lamb3-FF, Lamb3-PTC-FF) read-outs in the untreated state set at 100% (normalizer); for renilla control—the untreated state—mean and standard deviation of quantifications from twelve biological replicates, each with six technical replicates (72 reads), are shown. For Lamb3-FF control—the untreated state—mean and standard deviation of quantifications from six biological replicates, each with six technical replicates (36 reads), are shown. For Lamb3-PTC control—the untreated state—mean and standard deviation of quantifications from two biological replicates, each with six technical replicates (12 reads), are shown. Quantification upon treatment with ART and ATZ, respectively, for both, Ren (216 reads) and Lamb3-FF (105 reads), is shown by combining read-out data obtained by treatment with 2, 4, and 10 μM ART and ATZ (treated), respectively, and is normalized to the respective untreated control (normalizer). For luciferase reporter read-outs of Lamb3-PTC-FF treated with 2 μM, 4 μM and 10 μM ART and 2, 4, and 10 nM ATZ, respectively, mean and standard deviation of quantification from two biological replicates for ART (12 reads) and three biological replicates for ATZ (18 reads), with six technical replicates each, are shown normalized to Lamb3-PTC-FF control. […]

[2] = target: T1, human rpL35 (Homo sapiens, UniProt P42766); conditions: cited from earlier work
[3] = tested on: Lamb3-FF; assay: In-vivo dual luciferase reporter read-out in yeast cells, Lamb3-FF reporter; type: cell-based; conditions: for protein expression level of Lamb3-FF luciferase reporter upon small molecule treatment: combined read-outs of 2, 4 and 10 μM; for increase for Lamb3-FF protein expression: not significant
Description: (§1) Luciferase read-out data are represented normalized to the individual luciferase reporter (Ren, Lamb3-FF, Lamb3-PTC-FF) read-outs in the untreated state set at 100% (normalizer); for renilla control—the untreated state—mean and standard deviation of quantifications from twelve biological replicates, each with six technical replicates (72 reads), are shown. For Lamb3-FF control—the untreated state—mean and standard deviation of quantifications from six biological replicates, each with six technical replicates (36 reads), are shown. For Lamb3-PTC control—the untreated state—mean and standard deviation of quantifications from two biological replicates, each with six technical replicates (12 reads), are shown. Quantification upon treatment with ART and ATZ, respectively, for both, Ren (216 reads) and Lamb3-FF (105 reads), is shown by combining read-out data obtained by treatment with 2, 4, and 10 μM ART and ATZ (treated), respectively, and is normalized to the respective untreated control (normalizer). For luciferase reporter read-outs of Lamb3-PTC-FF treated with 2 μM, 4 μM and 10 μM ART and 2, 4, and 10 nM ATZ, respectively, mean and standard deviation of quantification from two biological replicates for ART (12 reads) and three biological replicates for ATZ (18 reads), with six technical replicates each, are shown normalized to Lamb3-PTC-FF control.
Obtaining evidence for drug directed manipulation of rpL35 to selectively increase full-length Lamb3-PTC expression has to be tested in functional assays. The inventors opted to first test small molecule action in the versatile yeast cell factory, employing the dual luciferase reporter system used in the original 2-SSRS (Bauer et al., 2013).

[4] = target: T1, human rpL35; assay: NMR titration series (2D 1H,15N HSQC) of 15N rpL35-His6 with ligand; type: binding; design: MBP (N, cleaved yes); made in house; host or cells: E. coli BL21; conditions: for number of amide signals with significant chemical shift perturbations: HSQC spectrum upon ligand addition; for binding to human rpL35 by NMR titration: changes in NMR spectra in presence of small molecule
Experimental: NMR experiments were recorded at 25° C. (298K) on a 700 MHz Bruker Ascend spectrometer equipped with cryogenically cooled TCI probe. All spectra were processed using Topspin 3.5 and analyzed with CARA 1.8.4.2. (Keller R. Optimizing the Process of Nuclear Magnetic Resonance Spectrum Analysis and Computer Aided Resonance Assignment. ETH Zurich; 2004) and NMRFAM-Sparky (Lee W, Tonelli M, Markley J L. NMRFAM-SPARKY: enhanced software for biomolecular NMR spectroscopy. Bioinformatics. 2015 Apr. 15; 31(8):1325-7). Concentration of ^15N labeled rpL35-His6 ranged from 200 to 400 μM and the sample was measured in a salt tolerant susceptibility matched slot tube (Shigemi™) with total volume of 170 μl.
NMR spectroscopy is able by comparative analysis of protein vs. protein+small molecule binder to asses binding sites of the small molecule on the protein. In this initial study the affinity of rpL35 towards artesunate and atazanavir was established by a simple titration series in which the inventors have been tracking perturbations to chemical shifts and peak heights in the 2D ^1H, ^15N HSQC spectrum. Aliquots of artesunate/atazanavir were added into the solution of ^15N rpL35 of which 2D 1H, ^15N HSQC spectrum was recorded immediately upon ligand addition. Perturbations of protein chemical shifts in ^15N HSQC spectrum are indicative of changes to the chemical environment of amide groups caused by binding of a ligand to the protein target.
Following the artesunate-protein rpL35 complex titration, the inventors have recorded 3D spectra of the same sample using ^15N NOESY-HSQC, ^15N TOCSY-HSQC, HNHA pulse sequences. The inventors extracted chemical shifts of amide ^1H, ^15N, HA, HB from the above mentioned spectra, and compared measured values with the average chemical shifts of common amino acids in Biological Magnetic resonance Data Bank (BMRB; http://www.bmrb.wisc.edu). In the 3D ^1H, ^15N NOESY-HSQC the inventors focused also on the presence of water signal which can indicate if the amino group is solvent accessible. […] However, collection of the basic set of chemical shifts mentioned earlier allowed the inventors to estimate amino acid type since many of them have quite characteristic values (e. g. alanine, threonine, and glycine). 3D ^15N TOCSY-HSQC helped the inventors to differentiate between amino acid types which have similar NH chemical shifts, such as leucine, lysine, valine. […] Using this approach the inventors obtained a set of protein signals which changed their position in 2D ^1H^15N-HSQC spectrum upon interaction with the ligand (artesunate, atazanavir) and information on the most probable amino acid type. […]

[5] = tested on: Lamb3-PTC-FF; assay: In-vivo dual luciferase reporter read-out in yeast cells, Lamb3-PTC-FF reporter; type: cell-based; conditions: normalized to untreated control
Description: as §1
(§2) Luciferase read-out data are represented normalized to the individual luciferase reporter (Lamb3-FF, Lamb3-PTC-FF, FF, and FF-PTC) of a respective control in the untreated state set at 100% (normalizer). Twelve biological replicates (n=12) for all detections. Normalization for treatment is shown, additional controls were run, but are not shown. Dosages: ART 2 μM, ATZ 1.6 nM and erythromycin 4 μM, respectively. Combination treatment […] are 50 nM and 0.08 nM, respectively, i.e. 40-fold and 20-fold less than individually applied compounds.
The inventors opted to first test small molecule action in the versatile yeast cell factory, employing the dual luciferase reporter system used in the original 2-SSRS (Bauer et al., 2013).

[6] = tested on: Lamb3PTC; assay: Hela in vitro translation assays; type: biochemical, human
[7] = tested on: FF-PTC; assay: In-vivo dual luciferase reporter read-out in yeast cells, FF-PTC reporter; type: cell-based; conditions: erythromycin 4 μM; indicator of lack of specific activity
Experimental: as §2

[8] = tested on: laminin 332; conditions: primary keratinocytes from three GS-JEB patients; cited from earlier work
[9] = tested on: Lamb3 protein with the R635XPTC mutation; conditions: very high, therapeutically not applicable dose; cited from earlier work

Molecule | protein expression level of renilla luciferase reporter upon small molecule treatment [1] | binding to human rpL35 in biotinylation assay [2] | protein expression level of Lamb3-FF luciferase reporter upon small molecule treatment [3] | increase for Lamb3-FF protein expression ([3]; treatment with 4 μM) | increase for Lamb3-FF protein expression ([3]; treatment with 10 μM) [fold] | number of amide signals with significant chemical shift perturbations [4] | binding to human rpL35 by NMR titration [4] | increase in full-length Lamb3-PTC-FF protein expression ([5]; treatment with 2 μM) [fold] | Lamb3PTC expression [6] | increase in full-length Lamb3-PTC-FF protein expression ([5]; treatment with 4 μM) [fold] | increase in full-length Lamb3-PTC-FF protein expression ([5]; treatment with 10 μM) [fold] | FF-PTC reporter read-out upon treatment [7] | induction of functional laminin 332 [8] | Lamb3 protein expression relative to normal level [9] [%]
C[C@H]1[C@H](OC(=O)CCC(=O)O)O[C@@H]2O[C@@]3(C)CC[C@H]4[C@H](C)CC[C@@H]1[C@@]24OO3 [artesunate] | no significant increase | binder of human rpL35 | no significant increase | 1,1 fold | 1.2 | 10 | bind human rpL35 protein at several possible binding pockets | 2.2 | increase | – | – | – | – | –
COC(=O)N[C@H](C(=O)N[C@@H](Cc1ccccc1)[C@@H](O)CN(Cc1ccc(-c2ccccn2)cc1)NC(=O)[C@@H](NC(=O)OC)C(C)(C)C)C(C)(C)C [atazanavir] | no significant increase | – | no significant increase | – | – | 5 | bind human rpL35 protein at several possible binding pockets | 1.8 | increase | 1.9 | 2.2 | – | – | –
CC[C@H]1OC(=O)[C@H](C)[C@@H](O[C@H]2C[C@@](C)(OC)[C@@H](O)[C@H](C)O2)[C@H](C)[C@@H](O[C@@H]2O[C@H](C)C[C@H](N(C)C)[C@H]2O)[C@](C)(O)C[C@@H](C)C(=O)[C@H](C)[C@@H](O)[C@]1(C)O [erythromycin] | – | – | – | – | – | – | – | – | – | – | – | increase | – | –
gentamicin | – | – | – | – | – | – | – | – | – | – | – | – | induced functional laminin 332 | 30
